{"source": "patent US12121525B2", "about": "“Methods for treating GI syndrome and graft versus host disease” (Sloan Kettering Institute for Cancer Research, priority 2007, dated 2024)", "key": {"[1]": {"test_system": "C57BL/6 hepatocytes", "assay_type": "cell-based", "experimental": "FIGS. 16A-16F. In vivo activated allogeneic CTLs require target hepatocyte ASMase for efficient killing ex vivo. Hepatocytes, isolated as described in Example 1, were coincubated with splenic T cells harvested from lethally-irradiated wild type C57BL/6 recipients 10-14 days following transplantation of LP BM+T cells. FIG. 16A: 2×10^6 GvH-activated CTLs were coincubated with 0.5×10^6 wild type C57BL/6 or B6.MRL.1pr (FasR^−/−) hepatocytes (left panel) in complete medium for 16 hr. […] Apoptosis was quantified following fixation by nuclear bisbenzimide staining. FIG. 16B: asmase^−/− hepatocytes are resistant to apoptosis induced by GvH-activated CTLs. CTL coincubation was performed as in FIG. 16A and apoptosis was quantified 16 hr thereafter. FIG. 16C: Representative images of asmase^+/+ (top left panel) and asmase^−/− (bottom left panel) C57BL/6 hepatocytes following 10 min coincubation in suspension with 2×10^6 GvH-activated T cells. Hepatocytes were fixed and stained with DAPI and Cy-3-labelled anti-ceramide mAb as described in Example 1. Arrows indicate ceramide-rich platform generation on the outer leaflet of the plasma membrane. […] FIG. 16D: Quantification of ceramide-rich platforms in asmase^+/+ and asmase^−/− hepatocytes following incubation with 2×10^6 GvH-activated CTLs. […] Apoptosis was quantified as in FIG. 16A. […] 0.5×10^6 wild type hepatocytes, preincubated with 50 μg/mL nystatin for 30 min and resuspended in RPMI containing 1% lipid-free FBS, were coincubated with 2×10^6 GvH-activated T cells and apoptosis was quantified as in FIG. 16A. […]\nTo assess whether ceramide-mediated raft clustering into membrane platforms is an essential component of cytolytic T cell (CTL)-induced apoptosis of hepatocytes, we blocked raft clustering pharmacologically and examined the impact on alloactivated CTL-induced hepatocyte apoptosis in vitro. […] Co-incubation induced increased hepatocyte apoptosis from a baseline of 4.7±0.7% to 33.8±1.9% by 16 hr, as detected by nuclear morphologic changes (FIG. 16A). […]"}, "[2]": {"test_system": "splenic T cells", "experiment": "Activation-induced cell death (AICD) assay, T cell apoptosis", "assay_type": "cell-based, mouse", "conditions": "500 nM; 16 hr", "from_the_text": "To define a role for target cell ASMase in AICD, asmase^+/+, asmase^−/− or MRL.1pr (FasR^−/−) T cells were stimulated for 24 hr with 10 microgam/ml ConA, washed, rested in medium containing 20 U/ml rIL-2 for 24 hr, and finally AICD was initiated by restimulation in medium containing 20 U/ml rIL-2 and increasing concentrations of plate bound anti-CD3 mAb for 24 hr. AICD induction by anti-CD3 mAb conferred ceramide-rich platform generation 4 hr following stimulation (FIG. 19D), evident in 26.4±1.6% of the population of asmase^+/+ T cells compared to 5.1±1.0% of asmase^−/− T cells (p<0.005). Confocal analysis identified colocalization of the sphingolipid GM1 (FIG. 19E) and Fas within ceramide-rich platforms in asmase^+/+ T cells.\nTo characterize the impact of platform generation on AICD, asmase^+/+ and asmase^−/− T cells were induced to undergo AICD and apoptosis was quantified 16 hr thereafter. Apoptosis in asmase^+/+ T cells was anti-CD3 mAb dose-dependent, reaching 32.9±5.2% apoptosis 16 hr post induction (FIG. 19F). […]\nHarvested splenocytes were enriched for T lymphocytes by nylon wool passage, resulting in >90% purity based upon FITC-CD3 mAb staining by flow cytometry. […] Cells were subsequently fixed, stained with 25 μl of 24 μg/ml bis-benzimide trihydrochloride solution (Hoechst #33258; Sigma-Aldrich, Milwaukee Wisc.) and apoptosis was quantified by fluorescence microscopy, as above."}, "[3]": {"test_system": "C57BL/6 splenocytes", "experiment": "Platform generation on target splenocytes coincubated with MLR-primed CTLs", "conditions": "500 nM"}}}
{"compound": "CCCCCCCCCCCCC/C=C/[C@@H](O)[C@H](CO)NC(=O)CCCCCCCCCCCCCCC", "note": "[C16-ceramide]", "values": [{"measurement": "rescue of CTL-induced apoptosis in nystatin-treated hepatocytes", "setting": "[1]", "value": "unable to overcome cholesterol chelation"}, {"measurement": "apoptosis of asmase−/− T cells stimulated to undergo AICD", "setting": "[2]", "value": "completely restored"}, {"measurement": "platform generation on asmase−/− target splenocytes", "setting": "[3]", "value": "restored"}]}
